Like-named read-outs stand apart in the source and are kept apart here.

In assay [1] the target is T1, Wee1 kinase domain (Homo sapiens, UniProt P30291).
T1 construct: Wee1 kinase domain was purchased from Carna (catalog #05-177); purchased Carna 05-177
The assay is described as follows: Wee1 Kinase Biochemical Assay (ADP-Glo). To be noted: 15 uM ATP. Put shortly:
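The reaction mix held 1 nM Wee1 kinase domain, 15 uM ATP and 2 ng/mL Poly(Lys,Tyr 4:1) substrate and was left for 4 hours at 25 °C. ADP production was then measured with ADP-Glo, and percent inhibition was derived relative to DMSO and a saturating Wee1 inhibitor.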

Assay [2] deals with phosphorylation of Cdc2 Y15 (Wee1 substrate) in A427 cells. Put plainly: Phosphorylated Cdc2 MSD Electrochemiluminescence Assay. The class given is cell-based. To be noted: Homo sapiens. Put shortly: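 Read-out: percent residual phospho-Cdc2 Y15 relative to DMSO and positive-control Wee1 inhibitor, measured by MSD electrochemiluminescence capture/detection antibody assay in cell lysates. A427 cells received duplicate 3-fold compound dilution series 20 h post-seeding, with 6 h total incubation at 37 °C.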

[3] abbreviates: class symbols, 1 nM Wee1 enzyme, 4 hours at 25° C.
Setting [4] is: A-427, class symbols, read-out: A427 pCDC2 MSD IC50.

T1 sequence (P30291 299-569 limits assumed): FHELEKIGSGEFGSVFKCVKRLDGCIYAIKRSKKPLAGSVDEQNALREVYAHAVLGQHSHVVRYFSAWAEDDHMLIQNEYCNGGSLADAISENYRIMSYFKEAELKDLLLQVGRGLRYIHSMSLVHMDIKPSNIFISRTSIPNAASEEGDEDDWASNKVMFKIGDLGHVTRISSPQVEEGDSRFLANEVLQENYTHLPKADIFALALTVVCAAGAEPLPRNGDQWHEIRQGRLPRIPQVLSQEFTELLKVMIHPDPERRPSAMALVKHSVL

Consider `CN1[C@@H]2C[C@H]1CN(c1ccc(Nc3ncc4c(n3)N(c3cccc(N5CCOC5=O)n3)[C@@H]3CC(C)(C)OC[C@]43C)cc1)C2` [Example 700, 3-(6-((4bR,8aR)-4b,7,7-trimethyl-2-((4-((1R,5S)-6-methyl-3,6-diazabicyclo[3.1.1]heptan-3-yl)phenyl)amino)-4b,7,8,8a-tetrahydropyrano[3′,4′:4,5]pyrrolo[2,3-d]pyrimidin-9(5H)-yl)pyridin-2-yl)oxazolidin-2-one], for which the concentration for half-maximal inhibition (IC50) in assay [1] (setting [3]) is below 10 nM; in assay [2] (setting [4]), 100 to 1000 nM.

For `CC1(C)C[C@H]2N(c3cccc(N=S(C)(C)=O)n3)c3nc(Nc4ccn(C5CC5)c(=O)c4)ncc3[C@@]2(C)CO1` (single isomer, unassigned) [Example 380], the half-maximal inhibitory concentration (IC50) is below 10 nM in assay [1] (Wee1 kinase domain, ADP-Glo) and 100 to 1000 nM in assay [2] (A-427, pCDC2 MSD).

For `CNCc1cccc(N2c3nc(Nc4ccc(N5C6CCC5COC6)cc4)ncc3[C@]3(C)COC(C)(C)C[C@H]23)n1` (single isomer, unassigned) [Example 88], the IC50 in assay [1] (Wee1 kinase domain, ADP-Glo) was below 10 nM; in assay [2] (A-427, pCDC2 MSD), 100 to 1000 nM.

As for `CN1C[C@@H]2CN(c3ccc(Nc4ncc5c(n4)N(c4cccc(N6CCCC6=O)n4)[C@@H]4CC(C)(C)OC[C@]54C)cc3)C[C@@H]2C1` [Example 694, 1-(6-((4bR,8aR)-4b,7,7-trimethyl-2-((4-((3aR,6aS)-5-methylhexahydropyrrolo[3,4-c]pyrrol-2(1H)-yl)phenyl)amino)-4b,7,8,8a-tetrahydropyrano[3′,4′:4,5]pyrrolo[2,3-d]pyrimidin-9(5H)-yl)pyridin-2-yl)pyrrolidin-2-one], the figures for the IC50 in assay [1] (setting [3]) and in assay [2] (setting [4]) were below 10 nM and 100 to 1000 nM, respectively.

Consider `Cc1cc(Nc2ncc3c(n2)N(c2cccc(N=S(C)(C)=O)n2)[C@@H]2CC(C)(C)OC[C@]32C)cnn1` (single isomer, unassigned) [Example 370], for which the IC50 in assay [1] (Wee1 kinase domain, ADP-Glo) is below 10 nM; in assay [2] (A-427, pCDC2 MSD), 100 to 1000 nM.

Turning to `CNCc1cccc(N2c3nc(NC(=O)[C@@H]4C[C@H]4c4cnn(C)c4)ncc3[C@@]3(C)COC(C)(C)C[C@@H]23)n1` [Example 764, (1R,2R)-2-(1-methyl-1H-pyrazol-4-yl)-N-((4bR,8aR)-4b,7,7-trimethyl-9-(6-((methylamino)methyl)pyridin-2-yl)-4b,5,7,8,8a,9-hexahydropyrano[3′,4′:4,5]pyrrolo[2,3-d]pyrimidin-2-yl)cyclopropane-1-carboxamide], the IC50 was below 10 nM in assay [1] (setting [3]) and 100 to 1000 nM in assay [2] (setting [4]).

As for `CN1C[C@H]2C[C@@H]1CN2c1ccc(Nc2ncc3c(n2)N(c2cccc(N=S(C)(C)=O)c2)[C@@H]2CC(C)(C)OC[C@]32C)cc1` [Example 713, dimethyl((3-((4bR,8aR)-4b,7,7-trimethyl-2-((4-((1R,4R)-5-methyl-2,5-diazabicyclo[2.2.1]heptan-2-yl)phenyl)amino)-4b,7,8,8a-tetrahydropyrano[3′,4′:4,5]pyrrolo[2,3-d]pyrimidin-9(5H)-yl)phenyl)imino)-16-sulfanone], the half-inhibitory concentration (IC50) was below 10 nM in assay [1] (setting [3]) and 100 to 1000 nM in assay [2] (setting [4]).

For `CC1(C)C[C@H]2N(c3cccc(N=S(C)(C)=O)n3)c3nc(Nc4cnn(C5CCOCC5)c4)ncc3[C@@]2(C)CO1` (single isomer, unassigned) [Example 194], the IC50 in assay [1] (Wee1 kinase domain, ADP-Glo) is below 10 nM; in assay [2] (A-427, pCDC2 MSD) it was 100 to 1000 nM.

Consider `CN1CC[C@H]2CN(c3ccc(Nc4ncc5c(n4)N(c4cccc(C(C)(C)O)n4)[C@@H]4CC(C)(C)OC[C@]54C)cc3)C[C@H]21` (single isomer, unassigned) [Example 439], for which the 50% inhibitory concentration (IC50) in assay [1] (setting [3]) is below 10 nM; in assay [2] (setting [4]), 100 to 1000 nM.

Regarding `CN=[S@](C)(=O)c1cccc(N2c3nc(Nc4ccc(C5CCN(C)CC5)cc4)ncc3[C@@]3(C)COC(C)(C)C[C@@H]23)n1` (single isomer, unassigned) [Example 751], the half-inhibitory concentration (IC50) in assay [1] (setting [3]) was below 10 nM; in assay [2] (setting [4]), 100 to 1000 nM.

`CN1C[C@@H]2C[C@H]1CN2c1ccc(Nc2ncc3c(n2)N(c2cccc(N4CCOC4=O)n2)[C@@H]2CC(C)(C)OC[C@]32C)cc1` (single isomer, unassigned) [Example 595]: the results for the IC50 in assay [1] (setting [3]) and in assay [2] (setting [4]) were below 10 nM and 100 to 1000 nM, respectively.

For orientation: IC50 means the concentration that gives 50% inhibition.

Source of the values: patent US20260166039A1 (SCHRÖDINGER, INC., priority 2022, published 2026).
